# Results: patent US20250019398A1, “NONAMERIC PEPTIDE HAVING EXCELLENT ANTIBACTERIAL ACTIVITY AGAINST GRAM-NEGATIVE BACTERIA AND ENANTIOMER THEREOF” (priority 2021, published 2025)
# Entries after “also recorded” stand apart in the source; their conditions may differ. Read-outs that look alike come from different tables or passages of the source. Square brackets hold non-standard residues; d marks the D form. Ends that are not written are not given here. Peptide text beside a SMILES is read from it.
# Key:
# [1] = system: carbapenem-resistant E. coli NCCP16044 (CREC 16044); experiment: microbe, parasite or virus in culture; type: cell-based; conditions: 16 hours, read-out: Minimal inhibitory concentration (MIC), CREC 16044
# Text: (§1) Among the bacterial strains used in the experiment, Escherichia coli KCTC 1682 was obtained from the Korean Collection for Type Cultures (KCTC) (Jeongeup, Korea), Acinetobacter baumannii KCCM 40203 and Pseudomonas aeruginosa KCCM 11328 were obtained from the Korean Culture Center of Microorganisms (KCCM) (Seoul, Korea), and Klebsiella pneumonia NCCP 16054 was obtained from the National Culture Collection for Pathogens (NCCP) (Osong, Korea). In addition, carbapenem-resistant E. coli NCCP16044 and carbapenem-resistant Klebsiella pneumonia NCCP 15782 were obtained from the NCCP, and three types of carbapenem-resistant A. baumanii CCARM 12004-6 were obtained from the Culture Collection of Antimicrobial Resistance Microbes (CCARM) (Cheongju City, Korea). The E. coli K1 (ATCC700973) strain used in the animal experiments was obtained from the American Type Culture Collection (ATCC) ([…]).
# (§2) The antimicrobial activities of the peptides were measured by a minimal inhibitory concentration (MIC) analysis. The MIC was determined using a broth dilution method. All bacterial strains were grown overnight at 37° C. in a Muller-Hinton (MH) medium.
# [2] = system: sheep red blood cells (sRBCs); experiment: Hemolysis of sheep red blood cells; type: cell-based; conditions: for Hemolysis of sRBCs: 100 μM, 1 h
# Experimental: Peptide-induced toxicity was determined by hemolysis of sheep red blood cells (sRBCs). Fresh sRBCs were washed three times or more with phosphate buffered saline (PBS), and debris was removed by centrifugation (1000×g, 5 minutes, 4° C.). All the peptides including a melittin control (0.2 to 100 μM) and a positive control (1% (v/v) Triton X-100) were cultured with 4% (v/v) sRBCs at 37° C. for 1 h, and then centrifuged at 1000×g for 5 minutes. The supernatant was measured at 405 nm using a microplate reader.
# [3] = system: Klebsiella pneumonia NCCP 16054; experiment: MIC, broth dilution; type: cell-based; conditions: standard Gram-negative bacteria, 16 hours
# Text: as §1, §2
# [4] = system: carbapenem-resistant Klebsiella pneumonia NCCP 15782 (CRKP 15782); experiment: MIC, broth dilution; type: cell-based; conditions: 16 hours
# Text: as §1, §2
# [5] = system: CRAB 12005 (carbapenem-resistant A. baumanii CCARM); experiment: MIC, broth dilution; type: cell-based, A. baumannii; conditions: 16 hours, read-out: Minimal inhibitory concentration (MIC), CRAB 12005
# Text: as §1, §2
# [6] = system: CRAB 12006 (carbapenem-resistant A. baumanii CCARM); experiment: MIC, broth dilution; type: cell-based, A. baumannii; conditions: 16 hours, read-out: Minimal inhibitory concentration (MIC), CRAB 12006
# Text: as §1, §2
# [7] = system: CRAB 12004 (carbapenem-resistant A. baumanii CCARM); experiment: MIC, broth dilution; type: cell-based, A. baumannii; conditions: 16 hours, read-out: Minimal inhibitory concentration (MIC), CRAB 12004
# Text: as §1, §2
# [8] = system: RAW 264.7 mouse macrophages; experiment: WST-8 cytotoxicity; type: cell-based; conditions: 100 μM, 24 hours
# Experimental: (§3) Additionally, for a cell-based toxicity assay, RAW 264.7 mouse macrophages and human kidney (HK)-2 cells were obtained from the Korean Cell Line Bank (Seoul, Korea), and cells were maintained in a DMEM culture medium (Thermo Fischer Scientific Inc., MA, USA) supplemented with 10% fetal bovine serum and 1% penicillin/streptomycin at 37° C. in a humidified 5% CO2 incubator. The cytotoxicity of the peptides was analyzed using a WST-8 cell proliferation assay (Biomax Co, Ltd, Seoul, South Korea), and the experiment was performed according to the kit protocol. Cells (1×10^4) were seeded in a 96-well plate, the peptide treatment (0 to 100 μM) were initiated at 80% confluency and then the cells were cultured for 24 hours. After culturing, a WST-8 reagent was added and the change in absorbance was read at 450 nm relative to the reagent blank, and values were expressed as percent cell survival.
# [9] = system: human kidney (HK)-2 cells; experiment: WST-8 cytotoxicity; type: cell-based; conditions: 100 μM, 24 hours
# Experimental: as §3
# E. coli = type: cell-based; conditions: 37° C.; for MIC, E. coli + Trypsin: peptide pre-cultured with trypsin 6 hours; for MIC, E. coli + α-Chymotrypsin: peptide pre-cultured with α-chymotrypsin 6 hours
# Experimental: (§4) Proteolysis of peptides in serum has limited clinical use due to decreased bioavailability and half-life. Therefore, the stability of all the peptides pre-exposed to trypsin and chymotrypsin proteases was investigated and the relative growth inhibition of E. coli and A. baumannii was determined (Table 3). […] Thereafter, 100 μL of a peptide-protease mixture was added to 100 μL of a bacterial suspension (E. coli, A. baumannii, 2×10^5 CFU/mL), and the resulting mixture was further cultured at 37°° C. for 16 hours. A bacterial suspension without a peptide and protease was employed as a negative control. An analysis was performed in triplicates through independent experiments, and the degree of bacterial growth was measured at 600 nm using a microplate reader.
# A. baumannii = type: cell-based; conditions: 37° C.; for MIC, A. baumannii + Trypsin: peptide pre-cultured with trypsin 6 hours; for MIC, A. baumannii + α-Chymotrypsin: peptide pre-cultured with α-chymotrypsin 6 hours
# Experimental: as §4
# [10] = system: Pseudomonas aeruginosa KCCM 11328; experiment: MIC, broth dilution; type: cell-based; conditions: standard Gram-negative bacteria, 16 hours
# Text: as §1, §2
# [11] = system: Acinetobacter baumannii KCCM 40203; experiment: MIC, broth dilution; type: cell-based; conditions: standard Gram-negative bacteria, 16 hours
# Text: as §1, §2
# [12] = system: Escherichia coli KCTC 1682; experiment: MIC, broth dilution; type: cell-based; conditions: standard Gram-negative bacteria, 16 hours; read-out: Minimal inhibitory concentration (MIC), E. coli
# Text: In addition, carbapenem-resistant E. coli NCCP16044 and carbapenem-resistant Klebsiella pneumonia NCCP 15782 were obtained from the NCCP, and three types of carbapenem-resistant A. baumanii CCARM 12004-6 were obtained from the Culture Collection of Antimicrobial Resistance Microbes (CCARM) (Cheongju City, Korea). The E. coli K1 (ATCC700973) strain used in the animal experiments was obtained from the American Type Culture Collection (ATCC) ([…]).
# as §2
# [13] = In vivo toxicity (serum AST, ALT, BUN); parameters: species or system ICR mice; conditions: 1 mg/kg and 5 mg/kg i.p., 24 hours
# Experimental: For in vivo toxicity measurements, ICR mice (n=5 per group) were injected intraperitoneally (i.p.) with R-Pro9-3D (1 mg and 5 mg/kg/day in PBS), and serum levels of aspartate aminotransferase (AST) and alanine aminotransferase (ALT) in the liver and BUN (blood urea nitrogen) in the kidney were measured using a standard kit manufactured by ASAN PHARM. Co., LTD.
# LPS = experiment: LAL chromogenic endotoxin assay (LPS neutralization); type: biochemical; conditions: LPS 2 ng/mL; peptide concentration of the values not stated (3.1-50 μM tested)
# Experimental: Peptide-mediated LPS-neutralizing activity was determined using a Limulus amebocyte lysate (LAL) chromogenic endotoxin quantification kit (GenScript, New Jersey, USA). 3.1, 6.3, 10, 12.5, 25, and 50 μM of each peptide were allowed to react so as to interact with LPS (2 ng/mL) at 37° C. for 10 minutes. LL-37, which is known to have high LPS-neutralizing ability, was used as a control. After an LAL enzyme (10 μL) was added to the peptide-LPS complex and the resulting mixture was allowed to react for 10 minutes, a chromogenic substrate was added thereto. An endotoxin level was shown by measuring the absorbance at 545 nm in triplicate and expressed in endotoxin units (EUs) per milliliter.
# LPS (E. coli O111:B4) = experiment: BODIPY-TR cadaverine displacement assay (LPS binding); conditions: 4 μM, 30 minutes
# Experimental: The binding ability of peptides to LPS was investigated by BODIPY-TR cadaverine (BC, Thermo Fisher Scientific, MA, USA) displacement assay (FIG. 2A). A probe complex was prepared by mixing 5 μg/mL BC and 5 μg/mL LPS (E. coli O111:B4, Sigma-Aldrich, St. Louis, MO, USA) in a 50 mM Tris buffer (pH 7.4) at room temperature for 6 hours. Peptides containing a polymyxin B (PMB) control (1 to 64 μM), which is known to have high LPS binding ability, were allowed to interact with the LPS-BC mixture in a black 96-well plate for 30 minutes. Relative fluorescence intensities were recorded using a fluorescence microplate reader (Molecular Devices, San Jose, USA) at an excitation wavelength of 580 nm and an emission wavelength of 620 nm.
# [14] = sheep red blood cells, 200 μM used when no detectable hemolysis at 100 μM
Compound,MIC [1] [µM],"Minimal inhibitory concentration (MIC), K. pneumonia [3] [µM]","Minimal inhibitory concentration (MIC), CRKP 15782 [4] [µM]",MIC [5] [µM],MIC [6] [µM],MIC [7] [µM],Toxicity in RAW264.7 cells [8],Toxicity in human kidney (HK)-2 cells [9],other results
"CC[C@@H](C)[C@@H](NC(=O)[C@@H](C)NC(=O)[C@@H](CC(C)C)NC(=O)[C@@H](Cc1c[nH]c2ccccc12)NC(=O)[C@@H](CC(C)C)NC(=O)[C@H](N)CCCNC(=N)N)C(=O)N[C@H](Cc1c[nH]c2ccccc12)C(=O)N[C@H](CCCNC(=N)N)C(=O)N[C@H](CCCNC(=N)N)C(N)=O [Pro9-3D, rlwlaiwrr-NH2] (H-[dR][dL][dW][dL][dA][dI][dW][dR][dR]-NH2)",8,8,8,8,8,8,–,–,HC10 (peptide concentration that induces 10% hemolysis) ([2]; red cells of sheep): 200 µM
"CC[C@@H](C)[C@@H](NC(=O)[C@@H](Cc1c[nH]c2ccccc12)NC(=O)[C@@H](CCCNC(=N)N)NC(=O)[C@H](N)CCCNC(=N)N)C(=O)N[C@H](C)C(=O)N[C@H](CC(C)C)C(=O)N[C@H](Cc1c[nH]c2ccccc12)C(=O)N[C@H](CC(C)C)C(=O)N[C@H](CCCNC(=N)N)C(N)=O [R-Pro9-3D, rrwialwlr-NH2] (H-[dR][dR][dW][dI][dA][dL][dW][dL][dR]-NH2)",4,8,8,4,4,4,20.3%,9.6%,"MIC, E. coli + Trypsin (E. coli): 8 µM; MIC, E. coli + α-Chymotrypsin (E. coli): 8 µM; MIC, A. baumannii + Trypsin (A. baumannii): 4 µM; MIC, A. baumannii + α-Chymotrypsin (A. baumannii): 4 µM; Hemolysis of sRBCs [2]: 1.2%; HC10 (peptide concentration that induces 10% hemolysis) [2, 14]: 200 µM; Minimal inhibitory concentration (MIC), P. aeruginosa [10]: 8 µM; Minimal inhibitory concentration (MIC), A. baumannii [11]: 4 µM; MIC [12]: 8 µM; Serum AST, ALT and BUN levels (in vivo toxicity) [13]: no clinically significant levels; also recorded: did not increase the above enzyme levels"
RLWLAIWRR-NH2 [Pro9-3],16,64,64,16,16,16,neither R-Pro9-3 nor Pro9-3 showed toxicity; also recorded: non-toxic,neither R-Pro9-3 nor Pro9-3 showed toxicity; also recorded: non-toxic,HC10 (peptide concentration that induces 10% hemolysis) ([2]; red cells of sheep): 200 µM
LL-37,–,–,–,–,–,–,–,–,LPS neutralization (LPS): 76.5%
C[C@@H](O)[C@H]1C(=O)N2C(C(=O)O)=C(SCCN=CN)C[C@H]12 [Imipenem],–,–,–,–,–,–,–,–,MIC ([1]; Escherichia coli): 8 µM; MIC ([5]; Acinetobacter baumannii): 64 µM; MIC ([6]; Acinetobacter baumannii): 64 µM; MIC ([7]; Acinetobacter baumannii): 64 µM
polymyxin B [PMB],–,–,–,–,–,–,–,–,BC displacement (LPS binding) (LPS (E. coli O111:B4)): 76.6%
RRWIALWLR-NH2 [R-Pro9-3],16,32,16,16,16,32,neither R-Pro9-3 nor Pro9-3 showed toxicity; also recorded: non-toxic,neither R-Pro9-3 nor Pro9-3 showed toxicity; also recorded: non-toxic,"MIC, E. coli + Trypsin (E. coli): >64 µM; MIC, E. coli + α-Chymotrypsin (E. coli): 64 µM; MIC, A. baumannii + Trypsin (A. baumannii): >64 µM; MIC, A. baumannii + α-Chymotrypsin (A. baumannii): >64 µM; Hemolysis of sRBCs [2]: 3.4%; HC10 (peptide concentration that induces 10% hemolysis) [2, 14]: 200 µM; Minimal inhibitory concentration (MIC), P. aeruginosa [10]: 64 µM; Minimal inhibitory concentration (MIC), A. baumannii [11]: 16 µM; MIC [12]: 16 µM"
